The results in this text go back to ChEMBL document CHEMBL1138961, “Highly selective and potent agonists of sphingosine-1-phosphate 1 (S1P1) receptor” (Bioorg Med Chem Lett, 2006).

Calls of active or inactive are those of the source.

Data set [1] addresses T1, Sphingosine 1-phosphate receptor 1 (Homo sapiens, UniProt P21453). Description: Agonist activity at S1P1 receptor assessed as induction of [35S]GTP-gamma-S binding. The class given is functional.
The species entered for data set [2] is Homo sapiens. Description: Selectivity for S1P1 receptor over S1P4 receptor.
Data set [3] addresses T2, Sphingosine 1-phosphate receptor 5 (Homo sapiens, UniProt Q9H228). In words: Inhibition of S1P5 receptor at 10 uM.
The species named for data set [4] is Homo sapiens. Description: Selectivity for S1P1 receptor over S1P2 receptor.
Data set [5] deals with T3, Sphingosine 1-phosphate receptor 3 (Homo sapiens, UniProt Q99500). Description: Inhibition of S1P3 receptor at 10 uM.
T3 sequence (Q99500 whole entry): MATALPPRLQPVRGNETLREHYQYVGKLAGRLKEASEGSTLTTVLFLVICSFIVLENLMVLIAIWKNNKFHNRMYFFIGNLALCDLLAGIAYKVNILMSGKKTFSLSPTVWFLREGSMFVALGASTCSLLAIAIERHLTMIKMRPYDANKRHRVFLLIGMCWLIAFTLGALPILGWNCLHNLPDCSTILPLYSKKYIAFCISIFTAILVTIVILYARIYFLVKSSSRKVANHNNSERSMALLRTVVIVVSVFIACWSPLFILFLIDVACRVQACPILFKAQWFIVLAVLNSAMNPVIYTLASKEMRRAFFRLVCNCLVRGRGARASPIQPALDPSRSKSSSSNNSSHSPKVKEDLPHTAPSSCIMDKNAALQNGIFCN
The target of data set [6] is T1, Sphingosine 1-phosphate receptor 1. Description: Inhibition of S1P1 receptor at 10 uM.
The species named for data set [7] is Homo sapiens. In words: Selectivity for S1P1 receptor over S1P5 receptor.
Data set [8] addresses T2, Sphingosine 1-phosphate receptor 5. In words: Agonist activity at S1P5 receptor assessed as induction of [35S]GTP-gamma-S binding. The class given is functional.
Data set [9] is described as follows: Half life in rat. The class given is ADME, organism-based. Conditions: in vivo.
The species named for data set [10] is Homo sapiens. In words: Selectivity for S1P1 receptor over S1P3 receptor.
Data set [11] has as its target T3, Sphingosine 1-phosphate receptor 3. In words: Agonist activity at S1P3 receptor assessed as induction of [35S]GTP-gamma-S binding. The data set is classed as functional.
Data set [12] is described as follows: Oral bioavailability in rat. The data set is classed as ADME, organism-based. As to conditions: in vivo.
For a further data set, the system named is Mus musculus. In words: Lowering of lymphocytes in mouse at 0.3 mg/kg, po. The class given is functional, organism-based. Set-up: dose 0.3 mg/kg.

T1 sequence (P21453 whole entry): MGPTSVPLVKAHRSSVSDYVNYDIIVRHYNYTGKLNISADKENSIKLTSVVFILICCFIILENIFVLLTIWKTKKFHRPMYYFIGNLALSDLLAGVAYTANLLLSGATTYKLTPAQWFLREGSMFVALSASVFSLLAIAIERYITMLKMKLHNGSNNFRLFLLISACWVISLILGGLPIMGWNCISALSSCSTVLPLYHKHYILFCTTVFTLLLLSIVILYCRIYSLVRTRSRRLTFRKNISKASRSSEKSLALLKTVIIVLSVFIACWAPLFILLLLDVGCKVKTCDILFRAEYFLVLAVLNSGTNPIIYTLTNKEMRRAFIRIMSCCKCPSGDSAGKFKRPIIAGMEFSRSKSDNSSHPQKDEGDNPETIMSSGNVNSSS
T2 sequence (Q9H228 whole entry): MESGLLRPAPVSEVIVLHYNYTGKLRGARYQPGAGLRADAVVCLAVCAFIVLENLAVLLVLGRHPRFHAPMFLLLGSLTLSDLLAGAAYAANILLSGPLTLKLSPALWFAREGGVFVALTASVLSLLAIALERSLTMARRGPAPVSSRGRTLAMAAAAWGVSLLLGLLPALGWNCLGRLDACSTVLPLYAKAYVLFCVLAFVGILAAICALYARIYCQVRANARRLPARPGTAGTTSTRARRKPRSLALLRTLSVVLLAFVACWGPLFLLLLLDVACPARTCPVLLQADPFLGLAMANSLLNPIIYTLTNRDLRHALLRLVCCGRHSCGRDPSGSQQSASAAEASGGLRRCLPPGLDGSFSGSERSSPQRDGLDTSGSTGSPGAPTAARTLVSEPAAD

Usually EC50 stands for the concentration needed to bring the measured effect to its halfway point. By inhibition is commonly meant the relative decrease from the control value, in per cent. Lower therefore signals a weak effect. Turning to `Cc1cc(CCC(=O)O)ccc1-c1nnc(-c2cnc(OC(C)C)c(Cl)c2)o1`, the EC50 in data set [1] was found to be 19 nM. For the same compound, the Selectivity ratio in the data set filed under Homo sapiens [2] and in the data set filed under Homo sapiens [4] was over 1000 in each case. For the same compound, the inhibition in [3] was 44%; in data set [5], 82%.

As for `Cc1cc(CCC(=O)O)ccc1-c1csc(-c2cnc(OC(C)C)c(Cl)c2)n1`, the Selectivity ratio in the data set listed under Homo sapiens [2] and in the data set listed under Homo sapiens [4] was over 1000 in each case. Further, the inhibition in [3] stood at 6%; in data set [6] it was 30%; in data set [5] it was 0%.

The term half-life denotes the time needed for the level to fall by half in the phase considered. Higher therefore signals slow decline. As usually defined, the bioavailability is dose-corrected exposure relative to a reference, in per cent. Low values mean little systemic uptake, high ones much systemic uptake. With `Cc1cc(CCC(=O)O)ccc1-c1ncc(-c2ccc(OC(C)C)c(C#N)c2)s1`, the figures for the EC50 in data set [1], in data set [8] and in data set [11] were 0.18 nM, 120 nM and over 10000 nM, respectively. For the same compound, the Selectivity ratio in the data set filed under Homo sapiens [7] was over 600; in the data set filed under Homo sapiens [2], over 1000; in the data set listed under Homo sapiens [10], over 10000; in the data set listed under Homo sapiens [4] it was over 1000. Besides, in data set [9], the half-life was under 1 h. For the same compound, in data set [12], the bioavailability turned out to be 39%. The outcome in the data set on Mus musculus was Active.

For the compound `Cc1cc(CCC(=O)O)ccc1-c1coc(-c2cnc(OC(C)C)c(Cl)c2)n1`, the EC50 in data set [1] stood at 1000 nM. In addition, the Selectivity ratio in the data set filed under Homo sapiens [2] and in the data set listed under Homo sapiens [4] was over 1000 each time. Besides, the inhibition in data set [3] amounted to 0%; in [5], 8%.
